Data on 18 compounds can be found in PMC3566758 (Beilstein Journal of Organic Chemistry, 2013).

SMILES strings stand for the structures. Values after ≈ are worked out from the molar mass of the structure shown. Where two headings read alike, the source gives them in different places. Bounds are passed on as bounds.

One series deals with measles virus (MeV). As to the kind of experiment: measles virus cytopathic effect (CPE) reduction assay. The class given is cell-based. The following applies: Measles morbillivirus, read-out: MeV (CPE) 50% inhibitory concentration. Here is the method: A small set of compounds was synthesized based on variations of 1 by replacing the p-methoxyphenyl group with other substituted phenyl rings or heterocyclic rings. The compounds were initially assayed in two screening assays: (1) a measles virus cytopathic effect (CPE) reduction assay and (2) a solubility assay based on laser nephelometry. Unfortunately, compounds with the highest aqueous solubilities (>100 µg/mL) had the poorest antiviral activity (i.e., 18a and 18e, Table 1).
On the technique in general: Protection from cytopathic effect is a common read-out in antiviral testing.

Series [1] is described as follows: microbe, parasite or virus in culture. The following applies: Influenza A virus, WSN, read-out: EC50 WSN. The class given is cell-based.
Series [2] has as its system measles virus (MeV) recombinant. As to the kind of experiment: microbe, parasite or virus in culture. The format is cell-based. The following applies: for EC50: Measles morbillivirus.
Details of series [3]: method as in earlier work. The following applies: ref 15 (Pharmacokinetics Study of JMN3-003. Unpublished results); cited from earlier work.
The subject of a further series is MeV. As to the kind of experiment: virus yield reduction assay. The format is cell-based. The following applies: Measles morbillivirus, read-out: MeV 50% inhibitory concentration, virus yield reduction assay.
The mark [4] stands for this setting: averages of four experiments, highest concentration assessed 75 μM.
Setting [5] is: pH 7.4, aqueous buffer, kinetic from dmso stock.
Where [6] appears, read: pH 3, aqueous buffer, kinetic from dmso stock.
[7] abbreviates: pH 5, aqueous buffer, kinetic from dmso stock.

For orientation: solubility means the dissolved amount per volume that the medium holds. A low value points to a poorly soluble substance. For `Cc1ccc(NC(=O)C(C)Sc2nc3ccccc3n2N2CCN(C)CC2)c(Cl)c1` (stereo not shown) [Compound 18c], the IC50 in the series with measles virus (MeV) (setting [4]) was over 75000 nM. In “physchem” (setting [5]), this compound came in with a solubility of under 15 µg/mL.

One may read the EC50 as the midpoint of the concentration-response curve. For the compound `Cc1ccc(NC(=O)[C@H](C)Sc2nc3ccccc3n2-c2ccc(CCN3CCOCC3)cc2)c(Cl)c1` [(S)-14c], the EC50 in series [1] came to 36 nM; in series [2] (read-out: EC50 MeV), 180 nM.

As for `Cc1ccc(NC(=O)C(C)Sc2nc3ccccc3n2-c2cccc(CN3CCOCC3)c2)c(Cl)c1` (stereo not shown) [Compound 18f], in the series on measles virus (MeV) (setting [4]), the IC50 is 270 nM. Besides, the solubility in “physchem” (setting [5]) is under 15 µg/mL.

Consider `Cc1ccc(NC(=O)C(C)Sc2nc3ccccc3n2-c2cccc(CCN3CCOCC3)c2)c(Cl)c1` (stereo not shown) [Compound 14b], for which the IC50 with measles virus (MeV) (setting [4]) came to 200 nM. In the series “in vitro”, this compound came in with a CC50 of over 50000 nM. Further, the solubility in the series “physchem” (setting [6]) worked out at 158 µg/mL (≈ 295 µM); in “physchem” (setting [7]), 33 µg/mL (≈ 61.7 µM); in “physchem” (setting [5]), 15 µg/mL (≈ 28 µM). Moreover, the EC50 in series [1] is 0.3 nM; in series [2] (read-out: EC50 MeV), 13 nM.

Take `Cc1ccc(NC(=O)[C@H](C)Sc2nc3ccccc3n2-c2cccc(CCN3CCOCC3)c2)c(Cl)c1` [(S)-14b]: the CC50 in the series “in vitro” was over 50000 nM. Moreover, the concentration giving a half-maximal response (EC50) is 1 nM in series [1]; 1 to 11 nM in series [2] (WSN, read-out: EC50 values against the two viruses); 11 nM in series [2] (read-out: EC50 MeV).

Consider `Cc1ccc(NC(=O)[C@@H](C)Sc2nc3ccccc3n2-c2ccccc2CN2CCN(C)CC2)c(Cl)c1` [(R)-14a], for which the figures for the 50% effective concentration (EC50) in series [1] and in series [2] (read-out: EC50 MeV) were 120 nM and 470 nM, respectively.

Turning to `Cc1ccc(NC(=O)C(C)Sc2nc3ccccc3n2C2CCCN(C)C2)c(Cl)c1` (stereo not shown) [Compound 18b], in the series with measles virus (MeV), the IC50 is over 290 nM. In the series “physchem” (setting [5]), this compound yielded a solubility of 19 µg/mL (≈ 42.9 µM).

Take `COc1ccc(-n2c(S[C@H](C)C(=O)Nc3ccc(C)cc3Cl)nc3ccccc32)cc1` [(R)-1]: the CC50 in “in vitro” is over 50000 nM. Further, the concentration giving a half-maximal response (EC50) in series [1] came to 160 nM; in series [2] (read-out: EC50 MeV) it was 880 nM.

As for `COc1ccc(-n2c(SC(C)C(=O)Nc3ccc(C)cc3Cl)nc3ccccc32)cc1` (stereo not shown) [Compound 1], the IC50 in the series with measles virus (MeV) (setting [4]) worked out at 3100 nM. In the series “in vitro”, this compound showed a CC50 of over 50000 nM. In addition, the solubility in the series “physchem”, in “physchem” (setting [6]), in the series “physchem” (setting [7]) and in “physchem” (setting [5]) was under 15 µg/mL in each case. Further, the EC50 in series [1] turned out to be 13 nM; in series [2] (read-out: EC50 MeV), 31 nM. Moreover, the oral bioavailability entry in series [3] is reported as “low”.

As for `Cc1ccc(NC(=O)C(C)Sc2nc3ccccc3n2CCN2CCNCC2)c(Cl)c1` (stereo not shown) [Compound 18e], in the series with measles virus (MeV) (setting [4]), the IC50 is over 75000 nM. Besides, the solubility is over 100 µg/mL in the series “physchem” (pH 7.4) and 120 µg/mL (≈ 262 µM) in “physchem” (setting [5]).

Compound `Cc1ccc(NC(=O)C(C)Sc2nc3ccccc3n2-c2cccc(CCn3ncnn3)c2)c(Cl)c1` (stereo not shown) [Compound 18g] showed a solubility in “physchem” (setting [5]) of under 15 µg/mL. The IC50 in the series with MeV was 50 nM.

With `Cc1ccc(NC(=O)[C@@H](C)Sc2nc3ccccc3n2-c2ccc(CCN3CCOCC3)cc2)c(Cl)c1` [(R)-14c], the half-maximal effective concentration (EC50) in series [1] stood at 120 nM; in series [2] (read-out: EC50 MeV) it was 530 nM.

`Cc1ccc(NC(=O)[C@@H](C)Sc2nc3ccccc3n2-c2cccc(CCN3CCOCC3)c2)c(Cl)c1` [(R)-14b]: the CC50 in “in vitro” is over 50000 nM. For the same compound, the 50% effective concentration (EC50) was found to be 110 nM in series [1] and 210 nM in series [2] (read-out: EC50 MeV).

On to `Cc1ccc(NC(=O)C(C)Sc2nc3ccccc3n2-c2ccc(CCN3CCOCC3)cc2)c(Cl)c1` (stereo not shown) [Compound 14c], for which the IC50 in the series with measles virus (MeV) (setting [4]) stood at 600 nM. Moreover, the solubility was found to be 212 µg/mL (≈ 396 µM) in the series “physchem” (setting [6]), 51 µg/mL (≈ 95.3 µM) in the series “physchem” (setting [7]) and 25 µg/mL (≈ 46.7 µM) in the series “physchem” (setting [5]). Besides, the figures for the 50% effective concentration (EC50) in series [1] and in series [2] (read-out: EC50 MeV) were 43 nM and 110 nM, respectively. In series [2] (MeV and WSN EC50 comparisons), the “ΔEC50, (S)-enantiomer versus (R)-enantiomer” value was under 3 fold.

For the compound `Cc1ccc(NC(=O)C(C)Sc2nc3ccccc3n2-c2ccccc2CN2CCN(C)CC2)c(Cl)c1` (stereo not shown) [Compound 14a], the IC50 with measles virus (MeV) (setting [4]) turned out to be 179 nM. For the same compound, the solubility in the series “physchem” (setting [6]) was over 300 µg/mL; in the series “physchem” (setting [7]) it was 92 µg/mL (≈ 172 µM); in the series “physchem” (setting [5]), 20 µg/mL (≈ 37.4 µM). For the same compound, the EC50 came to 8 nM in series [1] and 41 nM in series [2] (read-out: EC50 MeV).

In the case of `Cc1ccc(NC(=O)C(C)Sc2nc3ccccc3n2CCN2CCOCC2)c(Cl)c1` (stereo not shown) [Compound 18d], in the series on measles virus (MeV) (setting [4]), the IC50 is 4900 nM. In addition, in the series “physchem” (setting [5]), the concentration in solution (solubility) came to 22 µg/mL (≈ 47.9 µM).

`Cc1ccc(NC(=O)[C@H](C)Sc2nc3ccccc3n2-c2ccccc2CN2CCN(C)CC2)c(Cl)c1` [(S)-14a] returned a CC50 in the series “in vitro” of 25000 nM. Besides, the EC50 in series [1] was 4 nM; in series [2] (read-out: EC50 MeV) it was 68 nM.

For the compound `COc1ccc(-n2c(S[C@@H](C)C(=O)Nc3ccc(C)cc3Cl)nc3ccccc32)cc1` [(S)-1], in “in vitro”, the CC50 was over 50000 nM. For the same compound, the concentration for a half-maximal effect (EC50) amounted to 5 nM in series [1] and 37 nM in series [2] (read-out: EC50 MeV).
